The test system of data set [1] is L6 cells. Kind of data set: Glucose uptake test by L6 cells. Format: cell-based. Conditions: Rattus norvegicus, 1 hour, 2-deoxy-[3H]-glucose uptake, control (MEM solvent alone) = 100%, read-out: Ratio activity (%); for activity at 10 µg/mL: treatment concentration 10 μg/ml; for activity at 100 µg/mL: treatment concentration 100 μg/ml. Here is the method:
Glucose Uptake Test by L6 Cells
Each of compounds under test was applied to L6 cells (rat cells originally derived from skeletal muscles) by the following method to measure the stimulating effect on glucose uptake. Namely, L6 cells were suspended in α-minimum essential medium (hereinafter referred to simply as MEM) containing 10% fetal bovine serum (hereinafter referred to simply as FBS), and inoculated into a 96-well plastic plate in an amount of 5×10^4 cells/well and cultivated in an incubator (5% carbon dioxide gas, 37° C.) until the cells grew all over the well. Then, the culture medium was switched to MEM solution containing 2% BS, followed by cultivation further for from 7 to 10 ays (the culture medium was exchanged every three days) to differentiate the cells into skeletal muscle cells. Then, the culture medium was replaced with MEM solution without FBS, followed by cultivation for three hours, and then the compound under test prepared to a treatment concentration (diluted with MEM solution without FBS) was reacted with the skeletal muscle cells at 37° C. for 1 hour. The cells were washed with Krebs-Henseleit-Ringer buffer solution (hereinafter referred to simply as KHR buffer solution), and 2-deoxy-[^3H]-glucose was added to the cells in the KHR buffer solution, followed by treatment at 37° C. for 10 minutes. The treatment solution was removed, the cells were washed with the KHR buffer solution, then the cells were dissolved in a 1N sodium hydroxide solution in an appropriate amount, and the [^3H] radio activity was measured by means of a liquid scintillation counter (cpm) The percentage of the glucose uptake was represented by the percentage of radio activity when the compound under test was applied, taking the radio activity of the control (the MEM solvent alone was applied) as 100%. Each of the compounds as identified in Table 27 was used for treatment at a concentration of each of 10 μg/ml and 100 μg/ml to examine the stimulating effect on glucose uptake.

For data set [2], the system named is KK-Ay/Ta mice. Kind of data set: Test for hypoglycemic effect in KK-Ay/Ta mice. Format: in vivo. Conditions: 50 mg/kg single oral dose, percentage to level before administration, significant vs vehicle control (P≦0.05). Here is the method:
Using KK-Ay/Ta mice (purchased from CLEA Japan, Inc.) as spontaneous diabetic type II, the hypoglycemic effect of each of compounds under test was confirmed by the following method.
Male KK-Ay/Ta mice sufficiently preliminarily bred and acclimatized were classified into groups, each consisting of six mice, and each of the compounds under test was administered. Each of the compounds under test as suspended in 0.5% carboxymethyl cellulose (manufactured by Nacalai Tesque), and each compound was orally administered singly in a dose of 50 mg/kg (10 ml/kg) by means of an oral conductor. At the same time, as a group of vehicle control, 0.5% carboxymethyl cellulose was administered in the same volume (10 ml/kg) as for the group of administration of compound under test.
Collection of blood was carried out by the following method before the administration of each of the compounds under test or the vehicle, and at the time as identified in Table 28 after the administration. The tail vein of each mouse was shallowly cut by the edge of a razor to cause bleeding in an amount of blood of from 10 to 20 μL, and the blood was collected by a micropipet. The collected blood samples were immediately mixed with a heparin solution (20 U/ml) (manufactured by Mochida Yakuhin) in the same amount as the respective collected blood samples, and subjected to centrifugation at 4° C. for 5 minutes (10,000 rpm) by means of a cooling centrifugal machine. The plasma after the centrifugation was obtained as a sample for blood glucose level measurement.
The blood glucose level was measured by means of glucose oxidase method, and measured by using a commercially available assay kit (Glucose CII TEST WAKO, manufactured by Wako Pure Chemical Industries, Ltd.). Measurement was carried out on the day after the collection of blood, and the obtained plasma was stored at −20° C. before the measurement.
The blood glucose level at the time of collection of blood was calculated as the percentage to the blood glucose level before administration of the compound under test, and the hypoglycemic effect of the compound under test was evaluated by comparison with the change of the blood glucose level (percentage) of the group of vehicle control at the time of collection of blood. The evaluation results of the hypoglycemic effect are considered to have a significant difference compared with the vehicle control by means of Wilcoxon's rank sum test (P≦0.05)

Broadly, the melting point is the temperature of the solid-liquid transition. Regarding `CSc1nc2cc(C)nn2c(Nc2cccc(C#N)c2)c1C#N` [compound 186], the melting point is 235 to 238 °C. In data set [1], the activity at 10 µg/mL was over 115% and the activity at 100 µg/mL is over 115%. Besides, the “Rate of change of blood glucose level” value in data set [2] (after 3 hours) worked out at 80%.

In turn, `CSc1nc2ccnn2c(NCC2OCCO2)c1C#N` [compound 8] had a melting point of 157 to 158 °C. Besides, the activity at 100 µg/mL in data set [1] was over 115%. Moreover, the “Rate of change of blood glucose level” value in data set [2] (after 6 hours) is reported as 68%.

`CSc1nc2ccnn2c(NCc2ccncc2)c1C#N` [Compound No. 3, 7-(4-pyridylmethyl)amino-5-methylthiopyrazolo[1,5-a]pyrimidine-6-carbonitrile] came in with a melting point of 153 to 154 °C. In data set [1], the activity at 10 µg/mL was over 115% and the activity at 100 µg/mL is over 115%. The “Rate of change of blood glucose level” value in data set [2] (after 3 hours) was determined as 78%.

In turn, `CSc1nc2ccnn2c(NCc2ccc(C)cc2)c1C#N` [compound 50] showed a melting point of 159 °C. Also, in data set [1], the activity at 10 µg/mL was over 115% and the activity at 100 µg/mL was over 115%. The “Rate of change of blood glucose level” value in data set [2] (after 3 hours) amounted to 74%.

The values are drawn from patent US7067520B2, “Preventive or therapeutic medicines for diabetes containing fused-heterocyclic compounds or their salts” (Ishihara Sangyo Kaisha, Ltd., priority 2000, dated 2006).
